Patent publication US7122558B2 (priority 2000, dated 2006)
Counter-ions that a name gives are not always drawn.

Biological target: T1, human muscarinic receptors M3 (Homo sapiens, UniProt P20309)
T1 construct: expressed in transfected cells; host or cells: CHO-K1 (chinese hamster ovary-K1), stably transfected; membrane preparations
Assay: biochemical
Assay type: binding
Conditions: for inhibition at 0.1 µM: read-out: % INHIBITION concentration: 1.00E−07 M; for inhibition at 0.01 µM: read-out: % INHIBITION concentration: 1.00E−08 M

T1 sequence (P20309 whole entry): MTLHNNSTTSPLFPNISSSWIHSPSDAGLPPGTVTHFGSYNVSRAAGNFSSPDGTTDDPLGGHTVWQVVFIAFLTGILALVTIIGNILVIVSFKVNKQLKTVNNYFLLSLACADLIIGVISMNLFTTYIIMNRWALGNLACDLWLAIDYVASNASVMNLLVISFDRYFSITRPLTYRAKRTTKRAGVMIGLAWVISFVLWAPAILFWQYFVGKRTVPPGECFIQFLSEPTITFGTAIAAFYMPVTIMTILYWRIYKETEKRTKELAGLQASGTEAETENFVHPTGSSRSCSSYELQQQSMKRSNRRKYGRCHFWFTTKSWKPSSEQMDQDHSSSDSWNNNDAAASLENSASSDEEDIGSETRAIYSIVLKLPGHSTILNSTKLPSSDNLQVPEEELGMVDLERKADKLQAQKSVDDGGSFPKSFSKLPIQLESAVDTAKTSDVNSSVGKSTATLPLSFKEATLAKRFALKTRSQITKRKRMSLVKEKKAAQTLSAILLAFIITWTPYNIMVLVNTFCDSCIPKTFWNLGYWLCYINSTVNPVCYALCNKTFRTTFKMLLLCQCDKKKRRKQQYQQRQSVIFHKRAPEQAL

SMILES	inhibition at 0.1 µM [%]	inhibition at 0.01 µM [%]	% INHIBITION concentration: 1.00E−08 M (0.01 µM) [%]	% INHIBITION concentration: 1.00E−07 M (0.1 µM) [%]
O=C(O[C@H]1C[N+]2(CCc3ccccc3)CCC1CC2)[C@@](O)(c1cccs1)C1CCCC1 [Example 56, (3R)-3-[(2R)-2-Cyclopentyl-2-hydroxy-2-thien-2-ylacetoxy]-1-phenethyl-1-azoniabicyclo[2.2.2]octane trifluoroacetate]	77.3	53.8		
O=C(O[C@H]1C[N+]2(CCCc3ccccc3)CCC1CC2)[C@@](O)(c1cccs1)C1CCCC1 [Example 57, (3R)-3-[(2R)-2-Cyclopentyl-2-hydroxy-2-thien-2-ylacetoxy]-1-(3-phenylpropyl)-1-azoniabicyclo[2.2.2]octane trifluoroacetate]	77.4	47.1		
O=C(O[C@H]1C[N+]2(CCCc3cccs3)CCC1CC2)[C@@](O)(c1ccco1)C1CCCC1 [Example 61, (3R)-3-[(2S)-2-Cyclopentyl-2-fur-2-yl-2-hydroxyacetoxy]-1-(3-thien-2-ylpropyl)-1-azoniabicyclo[2.2.2]octane trifluoroacetate]	75.1	39.9		
O=C(O[C@H]1C[N+]2(CCCOc3ccccc3)CCC1CC2)[C@](O)(c1ccco1)C1CCCC1 [Example 64, (3R)-3-[(2R)-2-Cyclopentyl-2-fur-2-yl-2-hydroxyacetoxy]-1-(3-phenoxypropyl)-1-azoniabicyclo[2.2.2]octane trifluoroacetate]	78.6	64.5		
O=C(O[C@H]1C[N+]2(CCCc3cccs3)CCC1CC2)[C@](O)(c1ccco1)C1CCCC1.O=C([O-])C(F)(F)F [Example 65, (3R)-3-[(2R)-2-Cyclopentyl-2-fur-2-yl-2-hygroxyacetoxy]-1-(3-thien-2-ylpropyl)-1-azoniabicyclo[2.2.2]octane trifluoroacetate]			66.0	79.8
O=C(O[C@H]1C[N+]2(CCCc3ccccc3)CCC1CC2)[C@](O)(c1ccco1)C1CCCC1 [Example 67, (3R)-3-[(2R)-2-Cyclopentyl-2-fur-2-yl-2-hydroxyacetoxy]-1-(3-phenylpropyl)-1-azoniabicyclo[2.2.2]octane trifluoroacetate]	75.1	52.5		
O=C(O[C@H]1C[N+]2(CCCc3cccs3)CCC1CC2)[C@](O)(c1ccccc1)C1CCCCC1 [Example 69, (3R)-3-[(2R)-2-Cyclohexyl-2-hydroxy-2-phenylacetoxy]-1-(3-thien-2-ylpropyl)-1-azoniabicyclo[2.2.2]octane trifluoroacetate]	70.8	43.9		
O=C(O[C@H]1C[N+]2(CCc3ccccc3)CCC1CC2)[C@](O)(c1ccccc1)C1CCCCC1 [Example 70, (3R)-3-[(2R)-2-Cyclohexyl-2-hydroxy-2-phenylacetoxy]-1-phenethyl-1-azoniabicyclo[2.2.2]octane trifluoroacetate]	71.2	50		
O=C(O[C@H]1C[N+]2(CCc3ccccc3)CCC1CC2)[C@](O)(c1ccco1)C1CCCCC1 [Example 80, (3R)-3-[(2R)-2-Cyclohexyl-2-fur-2-yl-2-hydroxyacetoxy]-1-phenethyl-1-azoniabicyclo[2.2.2]octane trifluoroacetate]	72.4	55.8		
O=C(O[C@H]1C[N+]2(CCCc3ccccc3)CCC1CC2)[C@](O)(c1ccco1)C1CCCCC1 [Example 81, (3R)-3-[(2R)-2-Cyclohexyl-2-fur-2-yl-2-hydroxyacetoxy]-1-(3-phenylpropyl)-1-azoniabicyclo[2.2.2]octane trifluoroacetate]	70.1	45.4		
O=C(O[C@H]1C[N+]2(CCCOc3ccccc3)CCC1CC2)[C@](O)(c1ccccc1)C1CCCC1 [Example 82, (3R)-3-[(2R)-2-Cyclopentyl-2-hydroxy-2-phenylacetoxy]-1-(3-phenoxypropyl)-1-azoniabicyclo[2.2.2]octane trifluoroacetate]	70.6	55.3		
